Test results taken from US11046651B2, “Piperazine substituted azapine derivatives and uses thereof” (Alairion, Inc., priority 2019, dated 2021).

Experiments:
5-HT2C = 5-HT2C (Homo sapiens (Human), UniProt P28335); experiment: 5-HT2C binding assay ([3H]-Mesulergine, HEK293 membranes); conditions: numeric values
Description: 5-HT2C Binding Assay Protocol
The testing compounds were diluted with DMSO, starting at 2 mM, with 8-points and 5-fold serial dilutions.
1 μL of a compound of the present disclosure the reference compound (Table J) was transferred to an assay plate. […] 1 μL of DMSO was transferred to an assay plate according to the plate map for total binding (High control: HC).
(§1) Unifilter-96 GF/C filter plates were soaked with 50 μL of 0.3% PEI per well for about 0.5 hours at room temperature. When the binding assays were complete, the reaction mixture was filtered through the GF/C filter plates using Perkin Elmer Filtermate Harvester, and each plate was washed 4 times with cold wash buffer. The filter plates were dried for 1 hour at 50° C. After drying, the bottom of the filter plate wells were sealed using Perkin Elmer Unifilter-96 backing seal tape. 50 μL of Perkin Elmer Microscint 20 cocktail was added. The top of the filter plates were sealed with Perkin Elmer TopSeal-A sealing film.
^3H trapped on filters were counted using Perkin Elmer MicroBeta2 Reader. Inhibition constants were calculated using the following equation:
[formula] The data was analyzed using Prism 5. The model used was “log(inhibitor) vs. response—Variable slope” to fit the data and calculate IC50. The IC50 was then converted to Ki using the following equation: Ki=IC50/(1+L/Kd), wherein L is the radioligand concentration in the reaction system; Kd is the affinity of radioligand to the receptor.

D2 = D2 (Homo sapiens (Human), UniProt P14416); experiment: D2 binding assay ([3H] 7-OH-DPAT, HEK293 D2L membranes); conditions: numeric values
D2, sequence (P14416 whole entry): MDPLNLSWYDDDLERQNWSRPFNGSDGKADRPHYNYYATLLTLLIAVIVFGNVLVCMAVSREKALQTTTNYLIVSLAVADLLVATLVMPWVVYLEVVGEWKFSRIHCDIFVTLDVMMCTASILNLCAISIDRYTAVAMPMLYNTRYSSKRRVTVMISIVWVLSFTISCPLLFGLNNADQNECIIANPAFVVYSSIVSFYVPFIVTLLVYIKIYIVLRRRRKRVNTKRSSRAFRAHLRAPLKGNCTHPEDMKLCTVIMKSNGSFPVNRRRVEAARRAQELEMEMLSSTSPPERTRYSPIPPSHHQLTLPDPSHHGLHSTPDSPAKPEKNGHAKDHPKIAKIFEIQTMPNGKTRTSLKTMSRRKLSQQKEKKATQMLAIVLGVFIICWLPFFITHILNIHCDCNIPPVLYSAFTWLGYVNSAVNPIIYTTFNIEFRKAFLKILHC
Description: D2 Binding Assay Protocol
The testing compounds were diluted with DMSO, starting at 2 mM, with 8-points and 5-fold serial dilutions. droperidol was diluted with DMSO, starting at 0.2 mM, with 8-points and 4-fold serial dilutions.
1 μL of a compound of the present disclosure and the reference compound (Table O) was transferred to an assay plate. 1 μL of droperidol was transferred to an assay plate according to the plate map for nonspecific binding (Low control: LC). 1 μL of DMSO was transferred to an assay plate according to the plate map for total binding (High control: HC). Following a plate map, 100 μL of the membrane stock solutions and radio ligand were added into the plate. The plates were sealed and shaken with 300 rpm.
as §1, with “the GF/B” for “the GF/C”
^3H trapped on filters were counted using Perkin Elmer MicroBeta2 Reader. Inhibition constants were calculated using the following equation: […]
The data was analyzed using Prism 5. The model used was “log(inhibitor) vs. response—Variable slope” to fit the data and calculate IC50. The IC50 was then converted to Ki using the following equation: Ki=IC50/(1+L/Kd), wherein L is the radioligand concentration in the reaction system; Kd is the affinity of radioligand to the receptor. As shown in Table Q Compound No. 7 has a lower affinity for D2 when compared to Compounds A-2, A-3, A-4, and A-5.

5-HT2C, sequence (P28335 33-458): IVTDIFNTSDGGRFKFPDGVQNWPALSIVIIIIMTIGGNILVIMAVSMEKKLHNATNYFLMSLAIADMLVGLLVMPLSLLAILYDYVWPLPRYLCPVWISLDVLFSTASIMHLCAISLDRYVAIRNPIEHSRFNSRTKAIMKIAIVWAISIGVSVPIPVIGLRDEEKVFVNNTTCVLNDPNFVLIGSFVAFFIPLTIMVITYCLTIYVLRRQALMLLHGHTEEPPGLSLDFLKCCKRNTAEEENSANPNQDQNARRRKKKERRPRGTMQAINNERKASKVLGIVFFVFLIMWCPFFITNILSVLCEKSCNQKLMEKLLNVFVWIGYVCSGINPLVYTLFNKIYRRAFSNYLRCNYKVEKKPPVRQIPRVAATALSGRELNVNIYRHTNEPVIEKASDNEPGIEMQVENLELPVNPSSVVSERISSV

Compound `Cc1ccc2c(c1)N=C(N1CCN(CC(C)(C)C(=O)O)CC1)c1ccc(C)cc1O2` [A-4, 3-(4-(3,8-dimethyldibenzo[b,f][1,4]oxazepin-11-yl)piperazin-1-yl)-2,2-dimethylpropanoic acid, reference compound] has a Ki (5-HT2C) of 772 nM and a Ki (D2) of 1900 nM.
